Test results from patent publication US20100234238A1, “METHOD FOR PROFILING KINASE INHIBITORS” (Janssen Pharmaceutica N V, priority 2006, published 2010).

System: tyrosine kinase activity in lysates prepared from cell lines
Experiment: PAMCHIP96 tyrosine peptide array profiling of lysates of 27 cell lines in absence or presence of MTKI
Format: biochemical
Details: 5 μM
From the text: PAMGENE technology using the tyrosine peptide PAMCHIP96 allows the kinetic detection of the phosphorylation of 144 tyrosine peptides spotted onto a 3-dimensional porous well of a 96-well plate (www.pamgene.com). This technology can be used to measure the activity of purified kinases and the effects of kinase inhibitors thereon. Phosphotyrosine peptides are detected using a mix of fluorescently labeled anti-phosphotyrosine antibodies. Phosphorylation of peptides can be followed in real time due to the possibility of removing the reaction mix for a few seconds during the assay by a pumping mechanism to allow CCD camera detection of phosphopeptides bound to the fluorescent antibody. These consecutive datapoints (quantified spot images) generate a kinetic curve for each individual peptide, and allow for the calculation of initial velocities and endpoints associated with each individual peptide.
Cells cultured in appropriate medium in T175 flasks, treated with compound if necessary, are harvested at 70-90% confluency.
Media is removed, cells are washed with 10 ml ice cold PBS containing 0.1 mM NaVO4 and lysed in 1 ml of M-PER buffer (PIERCE) containing phosphatase and protease inhibitors (HALT, PIERCE). Cells are collected by scraping, and centrifuged for 10 minutes at 12 000×g. Supernatant lysates are filtered through a 0.2 micrometer filter (Anotop 0.2 μm anopore filter; Whatmann). Lysates are flash frozen in liquid nitrogen and stored at −80C.
Just prior to the PAMCHIP experiment, total protein content is quantitated in the lysates and lysates are diluted to 1 mg/ml in a total volume of 200 μl, with M-PER phosphatase and protease inhibitors (HALT, PIERCE). 10 μg of total lysate (corresponding to 10 μl) will be used per well on the PAMCHIP96.
To all 200 μl lysates 10 units of benzonase (Novagen) is added and lysates are further incubated for 30 min on ice and next centrifuged for 10 minutes at 12 000×g. The supernatant is then 1:1 diluted with compound or DMSO diluted to the appropriate concentration in water, and lysates are further incubated exactly 60 min on ice. Meanwhile, a PAMCHIP96 tyrosine peptide chip (PAMGENE) is blocked with 2% BSA (filtered through a 0.2 μm anopore filter; Whatmann) using the standard setting of a PAMSTATION96 (PAMGENE).
The composition of the kinase buffer is as follows: 1×ABL buffer (NEB), 0.5 mg/ml BSA (from 10 mg/ml NEB stock), 100 μM ATP (dissolved and diluted in 1×ABL buffer), 5 μg/ml PY20-FITC (ExAlpha Biologicals, azide-free preparation). A twofold concentrated kinase buffer is prepared chilled on ice, DMSO or compound is added as appropriate, and the solution is added 1:1 to the (compound treated) ice cold lysates, and immediately applied to a tyrosine peptide PAMCHIP96. The assay is run on a PAMSTATION96 according to standard procedures: after loading of the plate, solution is pumped once onto the wells, a first exposure is read (150 mSec) and then a kinetic reading program (reading every 5 min for 150 mSec) is run for 60 min. Lysates are run in 6 technical replicates for each condition; replicates are always applied horizontally next to each other to avoid vertical strip effects of the chip.
The data (spot images) are further quantified and linked to the peptide identities using EVOLVE PAMGRID software (PAMGENE). The quantified data are then fit to a curve using CurveFitHT software (PAMGENE) using the Vinip2 curve fitting algorithm, applied on the first 30 min of the assay; the initial velocity is derived at the first kinetic time point read. All subsequent data analyses were done on initial velocities (Vini) using the software packages Omniviz and R (Ihaka, R. and Gentlemen, R. (1996) R: a language for data analysis and graphics. J. Comput. Graph. Stat., 5, 299-314).
After replacing the Vini's lower than 0.1 by 0.1, all Vini's were log 2-transformed to approach normality.

COc1cc2ncnc3c2cc1OCCCCCN(C)Cc1ccc(Br)cc1N3 [MTKI, 4,6-ethanediylidenepyrimido[4,5-b][6,1,12]benzoxadiazacyclopentadecine, 17-bromo-8,9,10,11,12,13,14,19-octahydro-20-methoxy-13-methyl-]
ratio of initial velocity of peptide phosphorylation (A431 lysate, CDK7_157_169_S164): 0.53
ratio of initial velocity of peptide phosphorylation (A431 lysate, CREB1_122_134_Y134/S133): 0.63
ratio of initial velocity of peptide phosphorylation (A431 lysate, DDR2_733_745_Y740): 0.56
ratio of initial velocity of peptide phosphorylation (A431 lysate, MK10_216_228_T221/Y223): 0.46
ratio of initial velocity of peptide phosphorylation (A431 lysate, NCF1_313_325_S315/S320): 0.57
ratio of initial velocity of peptide phosphorylation (A431 lysate, NPT2_501_513_T508): 0.53
ratio of initial velocity of peptide phosphorylation (A431 lysate, PECA1_706_718_Y713): 0.72
ratio of initial velocity of peptide phosphorylation (A431 lysate, PGFRB_768_780_Y771/Y775/Y778): 0.97
ratio of initial velocity of peptide phosphorylation (A431 lysate, PLCG1_764_776_Y771): 0.82
ratio of initial velocity of peptide phosphorylation (A431 lysate, PRRX2_202_214_Y214): 0.75
ratio of initial velocity of peptide phosphorylation (A431 lysate, RASA1_453_465_Y460): 0.62
ratio of initial velocity of peptide phosphorylation (A431 lysate, STAT2_683_695_Y690): 0.57
ratio of initial velocity of peptide phosphorylation (A431 lysate, SYN1_2_14_S9): 0.58
ratio of initial velocity of peptide phosphorylation (A431 lysate, TYRO3_679_691_Y686): 0.52
ratio of initial velocity of peptide phosphorylation (H322 lysate, CDK7_157_169_S164): 0.88
ratio of initial velocity of peptide phosphorylation (H322 lysate, CREB1_122_134_Y134/S133): 0.94
ratio of initial velocity of peptide phosphorylation (H322 lysate, DDR2_733_745_Y740): 0.85
ratio of initial velocity of peptide phosphorylation (H322 lysate, ENOG_37_49_Y43): 0.76
ratio of initial velocity of peptide phosphorylation (H322 lysate, MK10_216_228_T221/Y223): 0.76
ratio of initial velocity of peptide phosphorylation (H322 lysate, NCF1_313_325_S315/S320): 0.88
ratio of initial velocity of peptide phosphorylation (H322 lysate, NPT2_501_513_T508): 0.88
ratio of initial velocity of peptide phosphorylation (H322 lysate, PECA1_706_718_Y713): 0.73
ratio of initial velocity of peptide phosphorylation (H322 lysate, PGFRB_768_780_Y771/Y775/Y778): 0.92
ratio of initial velocity of peptide phosphorylation (H322 lysate, PLCG1_764_776_Y771): 0.79
ratio of initial velocity of peptide phosphorylation (H322 lysate, PRRX2_202_214_Y214): 0.85
ratio of initial velocity of peptide phosphorylation (H322 lysate, RASA1_453_465_Y460): 0.83
ratio of initial velocity of peptide phosphorylation (H322 lysate, STAT2_683_695_Y690): 0.89
ratio of initial velocity of peptide phosphorylation (H322 lysate, SYN1_2_14_S9): 0.91
ratio of initial velocity of peptide phosphorylation (H322 lysate, TYRO3_679_691_Y686): 0.96
ratio of initial velocity of peptide phosphorylation (H2122 lysate, CDK7_157_169_S164): 0.90
ratio of initial velocity of peptide phosphorylation (H2122 lysate, CREB1_122_134_Y134/S133): 0.85
ratio of initial velocity of peptide phosphorylation (H2122 lysate, DDR2_733_745_Y740): 0.81
ratio of initial velocity of peptide phosphorylation (H2122 lysate, ENOG_37_49_Y43): 0.71
ratio of initial velocity of peptide phosphorylation (H2122 lysate, MK10_216_228_T221/Y223): 0.79
ratio of initial velocity of peptide phosphorylation (H2122 lysate, NCF1_313_325_S315/S320): 0.94
ratio of initial velocity of peptide phosphorylation (H2122 lysate, NPT2_501_513_T508): 0.90
ratio of initial velocity of peptide phosphorylation (H2122 lysate, PECA1_706_718_Y713): 0.67
ratio of initial velocity of peptide phosphorylation (H2122 lysate, PLCG1_764_776_Y771): 0.76
ratio of initial velocity of peptide phosphorylation (H2122 lysate, PRRX2_202_214_Y214): 0.84
ratio of initial velocity of peptide phosphorylation (H2122 lysate, RASA1_453_465_Y460): 0.78
ratio of initial velocity of peptide phosphorylation (H2122 lysate, STAT2_683_695_Y690): 0.90
ratio of initial velocity of peptide phosphorylation (H2122 lysate, SYN1_2_14_S9): 0.91
ratio of initial velocity of peptide phosphorylation (H2122 lysate, TYRO3_679_691_Y686): 0.95
ratio of initial velocity of peptide phosphorylation (H3255 lysate, CDK7_157_169_S164): 0.55
ratio of initial velocity of peptide phosphorylation (H3255 lysate, CREB1_122_134_Y134/S133): 0.73
ratio of initial velocity of peptide phosphorylation (H3255 lysate, DDR2_733_745_Y740): 0.44
ratio of initial velocity of peptide phosphorylation (H3255 lysate, ENOG_37_49_Y43): 0.76
ratio of initial velocity of peptide phosphorylation (H3255 lysate, MK10_216_228_T221/Y223): 0.47
ratio of initial velocity of peptide phosphorylation (H3255 lysate, NCF1_313_325_S315/S320): 0.59
ratio of initial velocity of peptide phosphorylation (H3255 lysate, NPT2_501_513_T508): 0.68
